Laboratory results published in BindingDB's records for doi:10.1021/acs.jmedchem.5b02042 (University of South Florida, 2016).

Target: Stromal cell-derived factor 1 (Homo sapiens, UniProt P48061)
Assay: Binding affinity to His6-SUMO fusion tagged wild type human [U-15N]CXCL12 expressed in Escherichia coli by 2D 1H-15N HMQC NMR spectroscopy

Stromal cell-derived factor 1, sequence (P48061 whole entry, the tested form may be a part): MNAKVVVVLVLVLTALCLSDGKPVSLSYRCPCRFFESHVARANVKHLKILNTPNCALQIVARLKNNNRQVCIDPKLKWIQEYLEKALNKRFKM

| Structure (SMILES) | Kd [µM] |
| --- | --- |
| CCCOc1ccc(C(Nc2ccc(F)cc2)P(=O)(O)O)cc1 (configuration not stated) | 1100 |
| O=C(O)CC1c2ccccc2CCN1C(=O)Nc1cccc(F)c1 (configuration not stated) | 4100 |
